Tested on: HeLa cells transfected with GR-GFP
Test: GR-GFP translocation assay for cytosolic access

## C[C@@H]1C[C@H]2[C@@H]3CCC4=CC(=O)C=C[C@]4(C)[C@@]3(F)[C@@H](O)C[C@]2(C)[C@@]1(O)C(=O)CO [Dex, dexamethasone]
200 nM bafilomycin 1 h pretreatment, then 1 μM
  effect of bafilomycin on TR: did not alter
50 μM EIPA 30 min pretreatment, then 1 μM 30 min 37°C
  effect of EIPA on TR: Neither EIPA nor dynasore blocked the increase
80 μM dynasore 30 min pretreatment, then 1 μM 30 min 37°C
  effect of dynasore on TR: Neither EIPA nor dynasore blocked the increase
5 mM MβCD, 1 μM 30 min
  reduction of the increase in TR by MβCD: 53%

Source: article PMC3488872 (Chemistry & biology, 2012)
